Drawing on patent US8710233B2 (Gruenenthal GmbH, priority 2005, dated 2014), this text covers Ki, IC50 and inhibition for 22 molecules.

Each structure is given as a SMILES string. Like-named read-outs stand apart in the source and are kept apart here.

What all share (format): cell-based
Assay [1] addresses T1, vanilloid receptor 1 (VR1/TRPV1) of the rat species (Rattus norvegicus, UniProt O35433).
T1 construct: The spinal column is removed from decapitated rats; from tissue; host or cells: primary cells dissociated from rat dorsal root ganglia
As to the kind of experiment: FLIPR Ca2+ influx assay on rat dorsal root ganglia cells (pharmacological method I). Particulars: for Ki: table 4, capsaicin; for inhibition at 10 µM: read-out: inhibition in percent, Ki (rat) Cap. The method in brief: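 Primary rat dorsal root ganglion cells loaded with 2 μM Fluo-4, Ca2+ influx read on FLIPR as peak fluorescence. Triplicates, at least 3 independent experiments.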

For assay [2], the target named is T2, vanilloid receptor (VR1) (Homo sapiens, UniProt Q8NER1).
T2 construct: expressed in transfected cells; host or cells: CHO K1 cells (ECACC), stably transfected
T2 sequence (Q8NER1 whole entry): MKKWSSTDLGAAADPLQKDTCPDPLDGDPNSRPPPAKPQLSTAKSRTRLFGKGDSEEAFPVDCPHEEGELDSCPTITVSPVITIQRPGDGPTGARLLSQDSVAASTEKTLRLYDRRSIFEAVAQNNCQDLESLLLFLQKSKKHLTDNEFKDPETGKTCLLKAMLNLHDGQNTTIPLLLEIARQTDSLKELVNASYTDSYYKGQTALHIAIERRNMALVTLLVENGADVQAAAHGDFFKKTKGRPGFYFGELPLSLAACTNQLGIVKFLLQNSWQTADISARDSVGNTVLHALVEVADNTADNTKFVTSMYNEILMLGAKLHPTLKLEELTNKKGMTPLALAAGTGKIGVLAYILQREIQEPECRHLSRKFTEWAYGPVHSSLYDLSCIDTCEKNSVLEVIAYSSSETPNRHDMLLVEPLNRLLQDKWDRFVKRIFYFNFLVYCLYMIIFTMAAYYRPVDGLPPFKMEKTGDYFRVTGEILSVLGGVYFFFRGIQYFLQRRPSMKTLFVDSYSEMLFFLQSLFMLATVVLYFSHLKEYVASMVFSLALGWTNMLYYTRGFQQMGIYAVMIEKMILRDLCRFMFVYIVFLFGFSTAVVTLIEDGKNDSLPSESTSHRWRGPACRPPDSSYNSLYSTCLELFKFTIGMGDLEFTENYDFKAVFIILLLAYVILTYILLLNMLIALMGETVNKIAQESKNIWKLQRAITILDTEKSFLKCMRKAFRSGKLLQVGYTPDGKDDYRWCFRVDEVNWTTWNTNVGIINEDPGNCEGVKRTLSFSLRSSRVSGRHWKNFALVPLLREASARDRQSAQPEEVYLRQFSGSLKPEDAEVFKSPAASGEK
As to the kind of experiment: FLIPR Ca2+ influx assay on CHO K1 cells transfected with the VR1 gene (pharmacological method II). The note with it: for inhibition at 10 µM: CHO-K1, read-out: inhibition in percent, Ki (human) Cap.

Assay [3] addresses VR1/TRPV1 receptor (Homo sapiens, UniProt Q8NER1). As to the kind of experiment: IC50 (human) after pH stimulus. Particulars: for IC50: table 4; for inhibition at 1 µM: ne = no effect.
Where [4] appears, read: table 4, capsaicin, read-out: Ki (human) Cap.
The mark [5] stands for this setting: read-out: inhibition in percent, IC50 (human) after pH stimulus.

VR1/TRPV1 receptor, sequence (Q8NER1 whole entry): as above
T1 sequence (O35433 whole entry): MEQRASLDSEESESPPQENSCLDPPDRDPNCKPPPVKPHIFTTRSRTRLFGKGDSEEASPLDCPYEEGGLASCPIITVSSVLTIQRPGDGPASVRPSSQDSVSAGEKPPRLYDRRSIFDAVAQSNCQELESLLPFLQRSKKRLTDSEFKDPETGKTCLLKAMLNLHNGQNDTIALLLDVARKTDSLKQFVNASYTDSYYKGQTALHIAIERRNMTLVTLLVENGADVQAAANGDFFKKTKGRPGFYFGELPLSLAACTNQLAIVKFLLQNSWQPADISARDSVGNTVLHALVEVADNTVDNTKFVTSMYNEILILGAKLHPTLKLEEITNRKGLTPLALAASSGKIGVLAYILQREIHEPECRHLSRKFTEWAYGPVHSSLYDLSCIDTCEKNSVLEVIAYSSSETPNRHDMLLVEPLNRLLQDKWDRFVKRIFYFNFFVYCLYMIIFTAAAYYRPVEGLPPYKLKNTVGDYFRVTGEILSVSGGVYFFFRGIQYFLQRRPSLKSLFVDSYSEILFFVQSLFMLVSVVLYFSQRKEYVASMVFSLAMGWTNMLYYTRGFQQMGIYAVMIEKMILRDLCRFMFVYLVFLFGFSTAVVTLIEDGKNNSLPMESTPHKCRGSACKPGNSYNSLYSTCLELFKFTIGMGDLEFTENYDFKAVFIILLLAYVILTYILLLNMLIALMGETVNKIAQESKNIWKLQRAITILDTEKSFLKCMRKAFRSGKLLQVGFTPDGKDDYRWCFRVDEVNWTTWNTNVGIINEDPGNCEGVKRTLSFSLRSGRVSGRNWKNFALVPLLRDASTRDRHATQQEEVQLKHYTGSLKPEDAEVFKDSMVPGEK

Consider `CC(C(=O)NCc1ccc(C(F)(F)F)nc1OC1CCC1)c1ccc(NS(C)(=O)=O)c(F)c1` (centres unmarked) [Example 156, N-(2-cyclobutoxy-6-trifluoromethyl-pyridin-3-ylmethyl)-2-(3-fluoro-4-methylsulfonamido-phenyl)-propionamide], for which the Ki was 1.7 nM in assay [1] (Ki (rat) Cap.) and 1.4 nM in assay [2] (setting [4]). Inhibition in assay [3] was half-maximal at 69.8 nM (IC50).
As for `CC1CCC(Oc2nc(C(F)(F)F)ccc2CNC(=O)C(C)c2ccc(NS(C)(=O)=O)c(F)c2)CC1` (centres unmarked) [Example 157, 2-(3-fluoro-4-methylsulfonamido-phenyl)-N-[2-(4-methyl-cyclohexyloxy)-6-trifluoromethyl-pyridin-3-ylmethyl]-propionamide], the Ki in assay [1] (Ki (rat) Cap.) was determined as 1.3 nM; in assay [2] (setting [4]) it was 2.9 nM. In assay [3], this molecule registered an IC50 of 43.1 nM.
Take `CC(=O)OC1CCN(c2nc(C(F)(F)F)ccc2CNC(=O)C(C)c2ccc(NS(C)(=O)=O)c(F)c2)CC1` (centres unmarked) [Example 158, acetic acid 3′-{[2-(3-fluoro-4-methylsulfonamido-phenyl)-propionylamino]-methyl}-6′-trifluoromethyl-3,4,5,6-tetrahydro-2H-[1,2′]bipyridinyl-4-yl ester]: the Ki in assay [1] (read-out: Ki (rat) Cap.) is 12.6 nM; in assay [2] (setting [4]) it was 4 nM. In assay [3], this molecule gave a half-maximal inhibitory concentration (IC50) of 139 nM.
As for `CC(C(=O)NCc1ccc(C(F)(F)F)nc1OCC1CCCC1)c1ccc(NS(C)(=O)=O)c(F)c1` (centres unmarked) [Example 161, N-(2-cyclopentylmethoxy-6-trifluoromethyl-pyridin-3-ylmethyl)-2-(3-fluoro-4-methylsulfonamido-phenyl)-propionamide], the Ki in assay [1] (Ki (rat) Cap.) came out at 0.7 nM; in assay [2] (setting [4]) it was 0.4 nM. Besides, the 50% inhibitory concentration (IC50) in assay [3] was 11.6 nM.
Regarding `CC(C)OC1CCN(c2nc(C(F)(F)F)ccc2CNC(=O)C(C)c2ccc(NS(C)(=O)=O)c(F)c2)CC1` (centres unmarked) [Example 162, 2-(3-fluoro-4-methylsulfonamido-phenyl)-N-(4-isopropoxy-6′-trifluoromethyl-3,4,5,6-tetrahydro-2H-[1,2′]bipyridinyl-3′-ylmethyl)-propionamide], the Ki in assay [1] (read-out: Ki (rat) Cap.) stood at 1.6 nM; in assay [2] (setting [4]) it was 3 nM. Besides, the inhibition at 1 µM in assay [3] (setting [5]) was determined as 58%.
In the case of `CCOc1nc(C(F)(F)F)ccc1CNC(=O)C(C)c1ccc(NS(C)(=O)=O)c(F)c1` (centres unmarked) [Example 163, N-(2-ethoxy-6-trifluoromethyl-pyridin-3-ylmethyl)-2-(3-fluoro-4-methylsulfonamido-phenyl)-propionamide], the inhibition constant Ki in assay [1] (Ki (rat) Cap.) came out at 8.5 nM; in assay [2] (setting [4]), 12.7 nM. This molecule also registered a concentration for half-maximal inhibition (IC50) in assay [3] of 277 nM.
For `CC(C(=O)NCc1ccc(C(F)(F)F)nc1N1CCC(N2CCCCC2)CC1)c1ccc(NS(C)(=O)=O)c(F)c1` (centres unmarked) [Example 164, 2-(3-fluoro-4-methylsulfonamido-phenyl)-N-(6″-trifluoromethyl-3,4,5,6,3′,4′,5′,6′-octahydro-2H,2′H-[1,4′;1′,2″]terpyridin-3″-ylmethyl)-propionamide], the inhibition at 10 µM in assay [1] came out at 85%; in assay [2], 84%; in assay [3] (setting [5]), 30%. The inhibition at 25 µM in assay [3] (@ 25 μM, read-out: inhibition in percent, IC50 (human) after pH stimulus) worked out at 28%.
For the molecule `CC(C(=O)NCc1ccc(C(F)(F)Cl)nc1OCc1ccccc1)c1ccc(NS(C)(=O)=O)c(F)c1` (centres unmarked) [Example 169, N-[2-benzyloxy-6-(chloro-difluoro-methyl)-pyridin-3-ylmethyl]-2-(3-fluoro-4-methylsulfonamido-phenyl)-propionamide], the Ki in assay [1] (read-out: Ki (rat) Cap.) is 0.6 nM; in assay [2] (setting [4]) it was 0.9 nM. The same molecule gave a half-inhibitory concentration (IC50) in assay [3] of 40.5 nM.
In the case of `CC(C(=O)NCc1ccc(C(F)(F)F)nc1OC1CCC(C(C)(C)C)CC1)c1ccc(NS(C)(=O)=O)c(F)c1` (centres unmarked) [Example 170, N-[2-(4-tert-butyl-cyclohexyloxy)-6-trifluoromethyl-pyridin-3-ylmethyl]-2-(3-fluoro-4-methylsulfonamido-phenyl)-propionamide], the results for the Ki in assay [1] (read-out: Ki (rat) Cap.) and in assay [2] (setting [4]) were 5.1 nM and 7.7 nM, respectively. This molecule also came in with an IC50 in assay [3] of 242 nM.
Take `Cc1ccc(COc2nc(C(F)(F)F)ccc2CNC(=O)C(C)c2ccc(NS(C)(=O)=O)c(F)c2)cc1` (centres unmarked) [Example 172, 2-(3-fluoro-4-methylsulfonamido-phenyl)-N-[2-(4-methyl-benzyloxy)-6-trifluoromethyl-pyridin-3-ylmethyl]-propionamide]: the figures for the Ki in assay [1] (read-out: Ki (rat) Cap.) and in assay [2] (setting [4]) were 0.4 nM and 1.5 nM, respectively. Further, the midpoint of inhibition in assay [3], the IC50, lay at 53 nM.
For the molecule `CC(C(=O)NCc1ccc(C(F)(F)F)nc1OCc1ccc(F)cc1)c1ccc(NS(C)(=O)=O)c(F)c1` (centres unmarked) [Example 175, N-[2-(4-fluoro-benzyloxy)-6-trifluoromethyl-pyridin-3-ylmethyl]-2-(3-fluoro-4-methylsulfonamido-phenyl)-propionamide], the results for the Ki in assay [1] (read-out: Ki (rat) Cap.) and in assay [2] (setting [4]) were 1.2 nM and 2.5 nM, respectively. In assay [3], the IC50 worked out at 25 nM.
Take `CC(C(=O)NCc1ccc(C(F)(F)F)nc1N1CCN(c2ccncc2)CC1)c1ccc(NS(C)(=O)=O)c(F)c1` (centres unmarked) [Example 176, 2-(3-fluoro-4-methylsulfonamido-phenyl)-N-[2-(4-pyridin-4-yl-piperazin-1-yl)-6-trifluoromethyl-pyridin-3-ylmethyl]-propionamide]: the results for the inhibition at 10 µM in assay [1], in assay [2] and in assay [3] (setting [5]) were 60%, 63% and 43%, respectively. The inhibition at 1 µM in assay [3] (setting [5]) was 13%.
Consider `CCCCCCOc1nc(C(F)(F)Cl)ccc1CNC(=O)C(C)c1ccc(NS(C)(=O)=O)c(F)c1` (centres unmarked) [Example 180, N-[6-(chloro-difluoro-methyl)-2-hexyloxy-pyridin-3-ylmethyl]-2-(3-fluoro-4-methylsulfonamido-phenyl)-propionamide], for which the values for the Ki in assay [1] (read-out: Ki (rat) Cap.) and in assay [2] (setting [4]) were 0.3 nM and 0.8 nM, respectively. The IC50 in assay [3] amounted to 22.8 nM.
On to `CC(C(=O)NCc1ccc(C(F)(F)Cl)nc1OCc1cccnc1)c1ccc(NS(C)(=O)=O)c(F)c1` (centres unmarked) [Example 181, N-[6-(chloro-difluoro-methyl)-2-(pyridin-3-ylmethoxy)-pyridin-3-ylmethyl]-2-(3-fluoro-4-methylsulfonamido-phenyl)-propionamide], for which the Ki in assay [1] (read-out: Ki (rat) Cap.) was determined as 5.6 nM; in assay [2] (setting [4]) it was 14.6 nM. Besides, the IC50 in assay [3] came to 1070 nM.
As to `CCCCN(CCCC)c1nc(C(F)(F)F)ccc1CNC(=O)C(C)c1ccc(NS(C)(=O)=O)c(F)c1` (centres unmarked) [Example 183, N-(2-dibutylamino-6-trifluoromethyl-pyridin-3-ylmethyl)-2-(3-fluoro-4-methylsulfonamido-phenyl)-propionamide], the figures for the Ki in assay [1] (read-out: Ki (rat) Cap.) and in assay [2] (setting [4]) were 0.7 nM and 0.6 nM, respectively. In addition, the IC50 in assay [3] stood at 10.5 nM.
In the case of `CCCN(CCC)c1nc(C(F)(F)Cl)ccc1CNC(=O)C(C)c1ccc(NS(C)(=O)=O)c(F)c1` (centres unmarked) [Example 186, N-[6-(chloro-difluoro-methyl)-2-dipropylamino-pyridin-3-ylmethyl]-2-(3-fluoro-4-methylsulfonamido-phenyl)-propionamide], the values for the Ki in assay [1] (read-out: Ki (rat) Cap.) and in assay [2] (setting [4]) were 0.8 nM and 0.6 nM, respectively. Further, in assay [3], the IC50 worked out at 37.6 nM.
Turning to `CCOC(=O)C1(c2ccccc2)CCN(c2nc(C(F)(F)F)ccc2CNC(=O)C(C)c2ccc(NS(C)(=O)=O)c(F)c2)CC1` (centres unmarked) [Example 189, 3′-{[2-(3-fluoro-4-methylsulfonamido-phenyl)-propionylamino]-methyl}-4-phenyl-6′-trifluoromethyl-3,4,5,6-tetrahydro-2H-[1,2′]bipyridinyl-4-carbonic acid ethyl ester], the Ki in assay [1] (Ki (rat) Cap.) was 3 nM; in assay [2], 4.7 nM. In assay [3], the midpoint of inhibition, the IC50, lay at 166 nM.
In the case of `CC(C(=O)NCc1ccc(C(F)(F)F)nc1N1CCC(C(F)(F)F)CC1)c1ccc(NS(C)(=O)=O)c(F)c1` (centres unmarked) [Example 190, N-(4,6′-bis-trifluoromethyl-3,4,5,6-tetrahydro-2H-[1,2′]bipyridinyl-3′-ylmethyl)-2-(3-fluoro-4-methylsulfonamido-phenyl)-propionamide], the values for the Ki in assay [1] (read-out: Ki (rat) Cap.) and in assay [2] (setting [4]) were 0.4 nM and 0.6 nM, respectively. In assay [3], this molecule yielded an IC50 of 31 nM.
Taken in the same sequence, the figures for `CC(C(=O)NCc1ccc(C(F)(F)F)nc1C=Cc1ccccc1)c1ccc(NS(C)(=O)=O)c(F)c1` (centres unmarked) [Example 191, 2-(3-fluoro-4-(methylsulfonamido)phenyl)-N-((2-styryl-6-(trifluoromethyl)pyridin-3-yl)methyl)propanamide] were 2 nM, 2.2 nM and 85 nM.
For `CC(C(=O)NCc1ccc(C(F)(F)F)nc1CCc1ccccc1)c1ccc(NS(C)(=O)=O)c(F)c1` (centres unmarked) [Example 192, 2-(3-fluoro-4-methylsulfonamido-phenyl)-N-(2-phenethyl-6-trifluoromethyl-pyridin-3-ylmethyl)-propionamide], the figures for the Ki in assay [1] (read-out: Ki (rat) Cap.) and in assay [2] (setting [4]) were 2.4 nM and 1.4 nM, respectively. Besides, half-maximal inhibition in assay [3] (IC50) was put at 47 nM.
Regarding `CC(C(=O)NCc1ccc(C(F)(F)F)nc1N1CCN(c2ncccc2Cl)CC1)c1ccc(NS(C)(=O)=O)c(F)c1` (centres unmarked) [Example 193, N-{2-[4-(3-chloro-pyridin-2-yl)-piperazin-1-yl]-6-trifluoromethyl-pyridin-3-ylmethyl}-2-(3-fluoro-4-methylsulfonamido-phenyl)-propionamide], the Ki in assay [1] (read-out: Ki (rat) Cap.) came to 3.2 nM; in assay [2] (setting [4]) it was 2.1 nM. In addition, in assay [3] (setting [5]), the inhibition at 1 µM is 69%.
As to `Cc1cc(C(C)C(=O)NCc2ccc(C(F)(F)F)nc2N2CCC(C(F)(F)F)CC2)ccc1NS(C)(=O)=O` (centres unmarked) [Example 195, N-(4,6′-bis-trifluoromethyl-3,4,5,6-tetrahydro-2H-[1,2′]bipyridinyl-3′-ylmethyl)-2-(4-methylsulfonamido-3-methyl-phenyl)-propionamide], the values for the Ki in assay [1] (read-out: Ki (rat) Cap.) and in assay [2] (setting [4]) were 0.4 nM and 1.1 nM, respectively. For the same molecule, in assay [3], the IC50 came to 61 nM.

A word on the Ki: it is a dissociation constant, usually derived from enzyme kinetics or from competition with a known ligand. One may read the IC50 as the concentration needed to halve the response being measured. What is called inhibition is the percentage by which the read-out fell short of the control.
